Assay results published in patent US20090192227A1, “N-Acetylcysteine Compositions and Methods for Treating Acute Exacerbations of Inflammatory Lung Disease” (priority 2005, published 2009).
“Also recorded” adds a separate entry of the source.

What was measured:
[1] = administered intravenously in dogs; cited from earlier work
[2] = Phase 2 trial: FEV1 (% Pred), lung function; assay type: in vivo, human
Excerpt: (§1) Summary. Based on the success of the phase I trial, the trial proceeded to phase II. This single-center trial consisted of a 12-week placebo-controlled section followed by a 12-week open label section, with oral NAC 0.9 g, taken three times daily. The statistical plan for the study was designed to assess the safety and efficacy of NAC versus placebo, at 0 week and 12-week timepoints (placebo-controlled section). Of the 24 subjects screened for eligibility, 21 were enrolled and randomized into NAC and placebo groups. One subject asked to be withdrawn from the prior to the 6 week time point because the medication regimen was too onerous. […] Two other subjects also were removed from participation in the study by the principal investigator due to poor adherence to the study protocol. […] Thus, 18 subjects are included in this intent-to-treat (ITT) analysis (9 on NAC and 9 on placebo).
(§2) Intention-to-treat analysis of efficacy endpoints. Besides the necessary assessment of the safety of high-dose oral NAC in a placebo-controlled setting, this phase 2 trial also was designed to gain a better understanding of treatment efficacy with regards to improving inflammation, redox imbalance and lung function in CF, albeit within the limits inherent to a small study. In particular, the study looked to confirm the positive effects of high-dose oral NAC seen on sputum neutrophil count and HNE activity obtained in phase 1. The primary efficacy endpoint in this phase 2 study is sputum neutrophil count (based on the quantification of live neutrophils by microscopy, reflecting lung inflammation) and the four secondary efficacy endpoints are: (i) FEV1 (% Pred), reflecting lung function; (ii) blood neutrophil GSH, reflecting systemic redox imbalance; (iii) sputum HNE activity, reflecting lung inflammation, the current best predictor of CF lung disease; and (iv) whole blood GSH, reflecting systemic redox imbalance. Data on all other main efficacy endpoints (along with sputum HNE and IL-8 protein levels as additional indicators of inflammation) is presented in Table 3 (below) for all 9 subjects of the NAC group and 9 subjects in the placebo group included in the ITT analysis.

[3] = 600 mg three times daily plus prednisone plus azothioprine, one year, vs standard therapy alone; cited from earlier work
[4] = Phase I trial: perceived weight gain by CF QOL questionnaire; assay type: in vivo, human; conditions: 4 weeks
Excerpt: (§3) With regards to efficacy, very significant positive effects of the treatment were documented. These positive effects (Table 2) included amelioration of: 1—Whole blood GSH (+11%, P=0.03), as measured by HPLC and blood neutrophil GSH (+17%, P=0.03), as measured by flow cytometry; 2—Live sputum leukocyte (−21%, P=0.03) and neutrophil (−25%, P=0.02) counts, as measured by microscopy and sputum elastase activity (−44%, P=0.02), as measured by kinetic spectrophotometry; and 3—Perceived weight gain (P=0.01), as measured by the CF QOL
Any sizeable change in lung function will likely require longer treatment and larger group size, which we look forward to implementing in the placebo-controlled phase of the study.

[5] = tested on: human neutrophil elastase (HNE); experiment: Phase 2 trial: sputum HNE protein levels; assay type: in vivo
Excerpt: as §1
as §2, with “In particular, the study looked to confirm the positive effects of high-dose oral NAC seen on sputum neutrophil count and HNE activity obtained in phase 1.” left out, “Data on all other main efficacy endpoints (along with sputum HNE and IL-8 protein levels as additional indicators of inflammation) is presented in Table 3 (below) for all 9 subjects of the NAC group and 9 subjects in the placebo group included in the ITT analysis.” left out
(§4) These various markers of inflammation were measured independently with different methodologies (e.g., microscopy, kinetic spectrophotometry, enzyme-linked immunosorbent assay), the results of which further strengthen the significance of these positive outcomes. […]

interleukin-8 (IL-8) = experiment: Phase I trial: sputum interleukin-8 (IL-8) by ELISA; assay type: in vivo, human; conditions: 3 patients excluded (N = 15), 4 weeks
Excerpt: 2. Lung inflammation, as reflected chiefly by (i) sputum counts in total live leukocytes and neutrophils (along with % neutrophils in sputum); (iii) plasma/sputum levels of elastase and interleukin-8 (IL-8) measured by spectrophotometry and ELISA Differences between basal and post-NAC values were studied by matched pair analysis, first, without distinguishing dose cohorts, to detect drug effects, and second, with dose cohorts as a factor, in order to detect potential dose effects.

[6] = tested on: sputum leukocytes and neutrophils; experiment: Phase I trial: sputum counts of live leukocytes and neutrophils by microscopy; assay type: in vivo, human; conditions: 4 weeks
Excerpt: as §3
(§5) 2. Lung inflammation, as reflected chiefly by (i) sputum counts in total live leukocytes and neutrophils (along with % neutrophils in sputum); (iii) plasma/sputum levels of elastase and interleukin-8 (IL-8) measured by spectrophotometry and ELISA
(§6) Differences between basal and post-NAC values were studied by matched pair analysis, first, without distinguishing dose cohorts, to detect drug effects, and second, with dose cohorts as a factor, in order to detect potential dose effects.

elastase = experiment: Phase I trial: sputum elastase activity by kinetic spectrophotometry; assay type: in vivo, human; conditions: 4 weeks
Excerpt: as §3, §5, §6

blood neutrophil GSH = experiment: Phase 2 trial: blood neutrophil intracellular GSH; assay type: in vivo, human; conditions: NAC group (n=9), ITT
Excerpt: Summary. Based on the success of the phase I trial, the trial proceeded to phase II. This single-center trial consisted of a 12-week placebo-controlled section followed by a 12-week open label section, with oral NAC 0.9 g, taken three times daily. The statistical plan for the study was designed to assess the safety and efficacy of NAC versus placebo, at 0 week and 12-week timepoints (placebo-controlled section). Of the 24 subjects screened for eligibility, 21 were enrolled and randomized into NAC and placebo groups. One subject asked to be withdrawn from the prior to the 6 week time point because the medication regimen was too onerous. […] Two other subjects also were removed from participation in the study by the principal investigator due to poor adherence to the study protocol. […]
Intention-to-treat analysis of efficacy endpoints. […] The primary efficacy endpoint in this phase 2 study is sputum neutrophil count (based on the quantification of live neutrophils by microscopy, reflecting lung inflammation) and the four secondary efficacy endpoints are: (i) FEV1 (% Pred), reflecting lung function; (ii) blood neutrophil GSH, reflecting systemic redox imbalance; (iii) sputum HNE activity, reflecting lung inflammation, the current best predictor of CF lung disease; and (iv) whole blood GSH, reflecting systemic redox imbalance. […]

sputum neutrophils = experiment: Phase 2 trial: sputum neutrophil count (live neutrophils by microscopy); assay type: in vivo, human
Excerpt: as §1
as §2, with “Data on all other main efficacy endpoints (along with sputum HNE and IL-8 protein levels as additional indicators of inflammation) is presented in Table 3 (below) for all 9 subjects of the NAC group and 9 subjects in the placebo group included in the ITT analysis.” left out

interleukin-8 = experiment: Phase 2 trial: sputum IL-8 protein levels; assay type: in vivo, human
Excerpt: as §1
as §2, with “In particular, the study looked to confirm the positive effects of high-dose oral NAC seen on sputum neutrophil count and HNE activity obtained in phase 1.” left out, “Data on all other main efficacy endpoints (along with sputum HNE and IL-8 protein levels as additional indicators of inflammation) is presented in Table 3 (below) for all 9 subjects of the NAC group and 9 subjects in the placebo group included in the ITT analysis.” left out
as §4

blood neutrophils = experiment: Phase I trial: absolute numbers of neutrophils in blood; assay type: in vivo, human; conditions: dose cohort 2 (2.4 g/d), 4 weeks
Excerpt: Indeed, cohort 2 was more severely affected with regards to several surrogate markers of disease prior to treatment (lower FEV1, all infected with P. aeruginosa, lower perceived weight gain).

[7] = systematic review of randomized controlled trials; cited from earlier work
[8] = Phase I trial: lung function by spirometry; assay type: in vivo, human; conditions: short-term treatment (4 weeks)
Excerpt: 3. Lung function, as measured by spirometry. Differences between basal and post-NAC values were studied by matched pair analysis, first, without distinguishing dose cohorts, to detect drug effects, and second, with dose cohorts as a factor, in order to detect potential dose effects. […] Any sizeable change in lung function will likely require longer treatment and larger group size, which we look forward to implementing in the placebo-controlled phase of the study.

[9] = 600 mg oral NAC per day, at least two exacerbations per year for 2 years; cited from earlier work
[10] = Phase 2 trial: exacerbations of sinus/lung disease, week 0 through week 12; assay type: in vivo, human; conditions: NAC group, placebo 7/9, P=0.04
Excerpt: as §1
During week 0 through week12, exacerbations of sinus/lung disease affected 9/18 subjects. Subjects were less prone to exacerbations in the NAC than in the placebo group (2/9 vs. 7/9, respectively, P=0.04, Fisher's exact test). […]

[11] = more stable than cysteine; cited from earlier work
interleukin-17 (IL-17) = experiment: Phase 2 trial: plasma levels of interleukin-17 (IL-17); assay type: in vivo, human; conditions: NAC group compared to placebo group, P=0.02
Excerpt: During week 0 through week12, exacerbations of sinus/lung disease affected 9/18 subjects. Subjects were less prone to exacerbations in the NAC than in the placebo group (2/9 vs. 7/9, respectively, P=0.04, Fisher's exact test). A key molecular correlate of exacerbations, namely plasma levels of the cytokine interleukin-17 (IL-17) also was decreased in the NAC group compared to the placebo-group (P=0.02), further confirming the anti-inflammatory effect of NAC in CF and corroborating its positive effect on acute attacks. IL-17 recently has been identified as a potent T-cell derived modulator of acute neutrophilic lung inflammation [Linden, A., et al. Neutrophils, interleukin-17A and lung disease. Eur. Respir. J. 25:159-172 (2008)]

[12] = Phase 2 placebo-controlled CF trial: safety, adverse events, adherence, CF QOL; assay type: in vivo, human
Excerpt: Summary. […] This single-center trial consisted of a 12-week placebo-controlled section followed by a 12-week open label section, with oral NAC 0.9 g, taken three times daily. The statistical plan for the study was designed to assess the safety and efficacy of NAC versus placebo, at 0 week and 12-week timepoints (placebo-controlled section).
Serious adverse events and adverse events. […] As used herein, the term “DIOS”, which stands for “Distal Intestinal Obstruction Syndrome” refers to a condition unique to CF that occurs due to the accumulation of viscous mucous and fecal material in the terminal ileum, caecum and ascending colon, which may cause progressive symptoms of recurrent colicky abdominal pain, bloating, nausea and anorexia, and signs of small intestinal obstruction.

[13] = tested on: human neutrophil elastase (HNE); experiment: Phase 2 trial: sputum HNE enzymatic activity; assay type: in vivo
Excerpt: as §1
as §2, with “In particular, the study looked to confirm the positive effects of high-dose oral NAC seen on sputum neutrophil count and HNE activity obtained in phase 1.” left out, “Data on all other main efficacy endpoints (along with sputum HNE and IL-8 protein levels as additional indicators of inflammation) is presented in Table 3 (below) for all 9 subjects of the NAC group and 9 subjects in the placebo group included in the ITT analysis.” left out
as §4

[14] = doses less than NAC; effects counter to those reported for NAC; cited from earlier work
[15] = NAC group (n=9), ITT, oral 0.9 g three times daily, week 12
[16] = NAC group (n=9), ITT, week 0 baseline
[17] = phase 2, wk 0 vs wk 12, not in placebo group
[18] = All (N = 18), basal vs post-NAC

Compound: CC(=O)N[C@@H](CS)C(=O)O [NAC, N-acetylcysteine]
- Pulmonary oxygen toxicity and ischemic and reperfusion damage [1]: protect
- Decline in pulmonary function tests (PFTs) ([2]; ITT analysis over the course of the phase 2 trial): no significant decline
- Functional expiratory volume in 1s (% Pred), Value wk 12 [2, 15]: 75.6 ± 8.2 % Pred
- Functional expiratory volume in 1s (% Pred), Value wk 0 [2, 16]: 73.7 ± 7.6 % Pred
- FEV1 (% Pred), effect ([2]; phase 2, 12 weeks): No significant effect; also recorded: failed to detect any significant improvement
- Deterioration of vital capacity and DLCO in IPF [3]: slows the deterioration
- Perceived weight gain, change ([4]; 3 patients excluded (N = 15)): Increased
- Perceived weight gain, change ([4]; All (N = 18), CF QOL): Increased
- Sputum HNE protein levels (Log10), Value wk 12 [5, 15]: −0.27 ± 0.12 Log10
- Sputum HNE protein levels (Log10), Value wk 0 [5, 16]: 0.04 ± 0.13 Log10
- Sputum HNE protein levels, change within NAC group [5, 17]: significant decreases; also recorded: significantly decreased
- IL-8 in sputum, change (interleukin-8 (IL-8)): −25%
- Live sputum leukocytes, change ([6]; 3 patients excluded (N = 15)): −28%
- Live sputum neutrophils, change ([6]; 3 patients excluded (N = 15)): −32%
- Neutrophils sputum (%), change ([6]; 3 patients excluded (N = 15)): −9%
- Live sputum leukocytes, change [6, 18]: −21%
- Live sputum neutrophils, change [6, 18]: −25%
- Elastase in sputum, change (elastase; 3 patients excluded (N = 15)): −46%
- Elastase in sputum, change (elastase; [18]): −44%
- Blood neutrophil intracellular GSH, Value wk 12 (blood neutrophil GSH; oral 0.9 g three times daily, week 12): 4.10 ± 0.10
- Blood neutrophil intracellular GSH, Value wk 0 (blood neutrophil GSH; week 0 baseline): 4.04 ± 0.08
- Sputum neutrophil count (Log10), Value wk 12 (sputum neutrophils; [15]): 1.24 ± 0.18 Log10
- Sputum neutrophil count (Log10), Value wk 0 (sputum neutrophils; [16]): 1.41 ± 0.17 Log10
- Sputum neutrophil count, change within NAC group (sputum neutrophils; phase 2, wk 0 vs wk 12, 0.9 g three times daily, not in placebo group): significant decreases; also recorded: significantly decreased
- Sputum IL-8 protein levels (Log10), Value wk 12 (interleukin-8; [15]): 1.81 ± 0.18 Log10
- Sputum IL-8 protein levels (Log10), Value wk 0 (interleukin-8; [16]): 2.01 ± 0.12 Log10
- Sputum IL-8 protein levels, change within NAC group (interleukin-8; [17]): significant decreases; also recorded: significantly decreased
- Decrease in absolute numbers of neutrophils in blood (blood neutrophils): 27%
- Early mortality in ARDS and ALI [7]: no effect
- Pulmonary Function Testing results (spirometry) [8]: not changed; also recorded: none of the parameters measured by spirometry showed any change
- Prevention of deterioration in lung function and exacerbations in COPD [9]: ineffective
- Subjects with exacerbations of sinus/lung disease [10]: 2/9
- Stability relative to cysteine [11]: about 10 times
- Plasma levels of IL-17 (interleukin-17 (IL-17)): decreased
- Complete blood count and chemistry parameters ([12]; 12-week treatment, marginal changes in red blood cell distribution width and calcium, within normal range): not affected
- Flatulence (CF QOL questionnaires) ([12]; NAC group, not in the placebo group, 12 weeks): significant reduction
- Liver enzymes ([12]; phase 2, 12 weeks): No change
- Tolerability ([12]; phase 2, oral 0.9 g three times daily, 12 weeks): very well tolerated; also recorded: lack of toxicity
- Sputum HNE enzymatic activity (Log10), Value wk 12 [13, 15]: 3.16 ± 0.20 Log10
- Sputum HNE enzymatic activity (Log10), Value wk 0 [13, 16]: 3.61 ± 0.15 Log10
- Sputum HNE enzymatic activity, change within NAC group [13, 17]: significant decreases; also recorded: significantly decreased

Compound: CC(=O)N[C@@H](CSSC[C@H](NC(C)=O)C(=O)O)C(=O)O [oxidized form of NAC, di-N-acetylcysteine]
- Bioactive dose relative to NAC [14]: 10-100 fold
